GI50 and TGI data for 13 molecules are collected here from PubChem BioAssay (NCI).

Test systems include LOX IMVI melanoma; SK-MEL-28 melanoma; RPMI-8226 leukemia; SK-MEL-2 melanoma; NCI-H226 lung; SF-268 CNS; TK-10 renal; OVCAR-5 ovarian; HOP-92 NSCLC; MALME-3M melanoma.
Common to all, as to assay: DTP human tumour cell line panel, 48 h

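48-hour exposure; five concentrations; linearly interpolated endpoints. GI50: concentration for 50% inhibition of growth. Definition used: TGI = concentration required for complete inhibition of growth.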

The term GI50 denotes the concentration at which growth is held to half of that of the control. The TGI is the concentration at which net growth stops.

On to `COc1ccc(OC)c(/C=C/C(=O)c2ccc(SC)cc2)c1`, for which the GI50 with LOX IMVI melanoma is 12.3 µM; in the assay on SK-MEL-28 melanoma, 10.1 µM; in the assay with RPMI-8226 leukemia, 1.66 µM; with SK-MEL-2 melanoma it was 6.12 µM; with NCI-H226 lung, 28.9 µM; with SF-268 CNS, 2.58 µM. The GI50 is 17.9 µM in the assay with TK-10 renal, 18.3 µM in the assay with OVCAR-5 ovarian and 6 µM in the assay with HOP-92 NSCLC. Further, the total growth inhibition concentration (TGI) in the assay on LOX IMVI melanoma worked out at 28 µM; in the assay on SK-MEL-28 melanoma, 51.1 µM; in the assay on RPMI-8226 leukemia, 7.05 µM; with SK-MEL-2 melanoma, 20.4 µM; in the assay with NCI-H226 lung, 88.4 µM; in the assay with SF-268 CNS, 7.46 µM. The values for the TGI in the assay with TK-10 renal, with OVCAR-5 ovarian and in the assay on HOP-92 NSCLC were 65.7 µM, 36.4 µM and greater than 100 µM, respectively.
In the case of `Cc1ccc(S(=O)(=O)N/N=C/CN2C(=O)c3ccccc3C2=O)cc1`, the TGI in the assay on LOX IMVI melanoma, in the assay on RPMI-8226 leukemia, with SK-MEL-2 melanoma, in the assay with NCI-H226 lung, in the assay on TK-10 renal and in the assay on MALME-3M melanoma was greater than 100 µM throughout.
As for `Cn1cc(C2=C(c3cccc(Cl)c3)C(=O)NC2=O)c2ccccc21`, the GI50 is greater than 25 µM with LOX IMVI melanoma; greater than 17.5 µM in the assay on SK-MEL-28 melanoma; greater than 25 µM with RPMI-8226 leukemia; greater than 25 µM in the assay on SK-MEL-2 melanoma; greater than 20.6 µM with NCI-H226 lung; greater than 25 µM with SF-268 CNS. The GI50 was 13.4 µM in the assay on TK-10 renal, greater than 25 µM in the assay with OVCAR-5 ovarian and greater than 25 µM in the assay with MALME-3M melanoma. Moreover, the TGI with LOX IMVI melanoma, in the assay with SK-MEL-28 melanoma, in the assay on RPMI-8226 leukemia, in the assay on SK-MEL-2 melanoma, with NCI-H226 lung and in the assay with SF-268 CNS was greater than 25 µM in each case. Also, the concentration for total growth inhibition (TGI) in the assay on TK-10 renal, in the assay with OVCAR-5 ovarian and with MALME-3M melanoma was greater than 25 µM in each case.
In the case of `CC(C)S(=O)(=O)ON1C(=O)c2ccc([N+](=O)[O-])cc2C1=O`, the total growth inhibition concentration (TGI) with SK-MEL-28 melanoma, with SK-MEL-2 melanoma, in the assay with NCI-H226 lung, in the assay on SF-268 CNS, in the assay on TK-10 renal and in the assay with OVCAR-5 ovarian was greater than 100 µM in each case. Also, the total growth inhibition concentration (TGI) with MALME-3M melanoma and with HOP-92 NSCLC was greater than 100 µM each time.
As for `COc1cccc(C2N3CCCCC3[C@@H]3c4[nH]c5ccccc5c4CCN23)c1OC` (stereo not given in full), the TGI in the assay with SK-MEL-28 melanoma worked out at 30.4 µM; in the assay on RPMI-8226 leukemia, 42.7 µM; in the assay with SK-MEL-2 melanoma it was 29.2 µM; with SF-268 CNS, 23.7 µM; with TK-10 renal, 33.4 µM; in the assay on OVCAR-5 ovarian, 29.4 µM. The molecule also yielded a total growth inhibition concentration (TGI) in the assay with HOP-92 NSCLC of 31.6 µM.
In the case of `CC1CC(=O)CC[C@@H]1OCc1ccccc1` (stereo not given in full), the concentration for total growth inhibition (TGI) in the assay on LOX IMVI melanoma, in the assay on RPMI-8226 leukemia, with SK-MEL-2 melanoma, with SF-268 CNS, with TK-10 renal and with OVCAR-5 ovarian was greater than 100 µM each time. In addition, in the assay on MALME-3M melanoma, the TGI was greater than 100 µM.
In the case of `COC(=O)C([O][Ge]([CH3])([CH3])[CH3])c1ccccc1` (stereo not given), the GI50 in the assay with LOX IMVI melanoma, in the assay on SK-MEL-28 melanoma, with NCI-H226 lung, in the assay with SF-268 CNS, in the assay on TK-10 renal and in the assay on OVCAR-5 ovarian was greater than 100 µM each time. Also, the GI50 in the assay with MALME-3M melanoma and in the assay on HOP-92 NSCLC was greater than 100 µM in each case. Further, the concentration for total growth inhibition (TGI) with LOX IMVI melanoma, in the assay with SK-MEL-28 melanoma, in the assay with NCI-H226 lung, with SF-268 CNS, in the assay with TK-10 renal and in the assay with OVCAR-5 ovarian was greater than 100 µM in each case. The TGI in the assay on MALME-3M melanoma and with HOP-92 NSCLC was greater than 100 µM in each case.
As for `CCCN(CCC)c1c([N+](=O)[O-])cc(C(N)=O)cc1[N+](=O)[O-]`, the TGI with SK-MEL-28 melanoma, in the assay on RPMI-8226 leukemia, in the assay on SK-MEL-2 melanoma, with NCI-H226 lung, in the assay with SF-268 CNS and with TK-10 renal was greater than 100 µM each time. In addition, the TGI with OVCAR-5 ovarian and in the assay on MALME-3M melanoma was greater than 100 µM in each case.
For the molecule `Clc1cc(-c2csc(Cl)c2)cs1`, the TGI with LOX IMVI melanoma, in the assay on SK-MEL-28 melanoma, with RPMI-8226 leukemia, in the assay on SK-MEL-2 melanoma, with NCI-H226 lung and in the assay with SF-268 CNS was greater than 100 µM in each case. The TGI with TK-10 renal, in the assay on OVCAR-5 ovarian and in the assay with HOP-92 NSCLC was greater than 100 µM each time.
As to `c1cc[c]([Sn]([O]c2cccc3cccnc23)([c]2ccccc2)[c]2ccccc2)cc1`, the concentration for 50% growth inhibition (GI50) with LOX IMVI melanoma was 0.0132 µM; in the assay on SK-MEL-28 melanoma it was 0.0116 µM; in the assay on RPMI-8226 leukemia, 0.0184 µM; in the assay with SK-MEL-2 melanoma it was 0.0217 µM; with NCI-H226 lung, 0.0454 µM; in the assay with SF-268 CNS it was 0.0128 µM. Moreover, the GI50 is 0.0229 µM with TK-10 renal, 0.0119 µM with OVCAR-5 ovarian and 0.0172 µM in the assay with HOP-92 NSCLC. The TGI with LOX IMVI melanoma stood at 0.0261 µM; in the assay with SK-MEL-28 melanoma it was 0.0299 µM; in the assay with RPMI-8226 leukemia, 0.05 µM; in the assay on SK-MEL-2 melanoma it was 0.059 µM; in the assay with NCI-H226 lung, 0.153 µM; in the assay on SF-268 CNS, 0.0275 µM. Further, the results for the TGI with TK-10 renal, in the assay with OVCAR-5 ovarian and in the assay with HOP-92 NSCLC were 0.0693 µM, 0.0424 µM and 0.0575 µM, respectively.
As to `COc1ccccc1NC(=O)NS(=O)(=O)c1ccccc1`, the TGI in the assay with LOX IMVI melanoma, in the assay on SK-MEL-28 melanoma, with SK-MEL-2 melanoma, in the assay on NCI-H226 lung, in the assay on SF-268 CNS and in the assay on TK-10 renal was greater than 100 µM in each case. For the same molecule, the total growth inhibition concentration (TGI) in the assay on OVCAR-5 ovarian, in the assay on MALME-3M melanoma and with HOP-92 NSCLC was greater than 100 µM throughout.
For `Cc1cccc2c1C(=O)OC2(c1cccc2ccccc12)c1cccc2ccccc12`, the TGI with LOX IMVI melanoma, in the assay on SK-MEL-28 melanoma, with SK-MEL-2 melanoma, in the assay on NCI-H226 lung, with SF-268 CNS and in the assay on TK-10 renal was greater than 100 µM each time. Further, the total growth inhibition concentration (TGI) in the assay with OVCAR-5 ovarian and in the assay on MALME-3M melanoma was greater than 100 µM each time.
Consider `Cc1nc(C)c(C(=O)NNC(=O)c2ccccc2)cc1C(=O)NNC(=O)c1ccccc1`, for which the total growth inhibition concentration (TGI) with LOX IMVI melanoma, in the assay on RPMI-8226 leukemia, with SK-MEL-2 melanoma, in the assay on NCI-H226 lung, in the assay on SF-268 CNS and in the assay with TK-10 renal was greater than 100 µM in each case. Besides, the TGI in the assay on OVCAR-5 ovarian and in the assay with HOP-92 NSCLC was greater than 100 µM each time.
